What all share (assay type): functional
Test [1] deals with Blumeria graminis f. sp. tritici. Kind of test: Fungicidal activity against Blumeria graminis f. sp. tritici assessed as wheat powdery mildew disease control at 31.3 ppm foliar application for 48 hr before inoculation by preventive manner.
The test system of test [2] is Thanatephorus cucumeris. Kind of test: Fungicidal activity against Thanatephorus cucumeris assessed as rice sheath blight disease control at 31.3 ppm foliar application for 24 hr before inoculation at 26 +/- 2 degC measured after 5 days by preventive manner.
For test [3], the system named is Pseudoperonospora cubensis. Kind of test: Fungicidal activity against Pseudoperonospora cubensis assessed as cucumber downy mildew disease control at 2 ppm foliar application 24 hr before inoculation onto the adaxial(treated) surface of leaf by preventive manner.
Test [4] has as its system Pyricularia oryzae. Kind of test: Fungicidal activity against Magnaporthe oryzae assessed as rice blast disease control at 31.3 ppm foliar application for 24 hr before inoculation at 27 +/- 2 degC measured after 5 days by preventive manner.
The test system of test [5] is Pseudoperonospora cubensis. Kind of test: Fungicidal activity against Pseudoperonospora cubensis assessed as cucumber downy mildew disease control at 31.3 ppm foliar application 24 hr before inoculation onto the abaxial(untreated) surface of leaf by preventive manner.
Test [6] relates to Botrytis cinerea. As to the kind of experiment: Fungicidal activity against Botryotinia fuckeliana assessed as cucumber gray mold disease control at 7.8 ppm foliar application […] at 22 +/- 2 degC by preventive manner.
Test [7] has as its system Podosphaera fuliginea. Kind of test: Fungicidal activity against Podosphaera fuliginea assessed as cucumber powdery mildew control at 2 ppm foliar application 24 hr before inoculation at 23 +/- 2 degC by preventive manner.
The subject of test [8] is Pseudoperonospora cubensis. Kind of test: Fungicidal activity against Pseudoperonospora cubensis assessed as cucumber downy mildew disease control at 125 ppm foliar application 24 hr before inoculation onto the abaxial(untreated) surface of leaf by preventive manner.
The test system of test [9] is Thanatephorus cucumeris. Kind of test: Fungicidal activity against Thanatephorus cucumeris assessed as rice sheath blight disease control at 125 ppm foliar application for 24 hr before inoculation at 26 +/- 2 degC measured after 5 days by preventive manner.
The subject of test [10] is Podosphaera fuliginea. As to the kind of experiment: Fungicidal activity against Podosphaera fuliginea assessed as cucumber powdery mildew control at 31.3 ppm foliar application 24 hr before inoculation at 23 +/- 2 degC by preventive manner.
Test [11] relates to Pseudoperonospora cubensis. As to the kind of experiment: Fungicidal activity against Pseudoperonospora cubensis assessed as cucumber downy mildew disease control at 125 ppm foliar application 24 hr before inoculation onto the adaxial(treated) surface of leaf by preventive manner.
For test [12], the system named is Pyricularia oryzae. Kind of test: Fungicidal activity against Magnaporthe oryzae assessed as rice blast disease control at 7.8 ppm foliar application for 24 hr before inoculation at 27 +/- 2 degC measured after 5 days by preventive manner.
Test [13] concerns Pseudoperonospora cubensis. Kind of test: Fungicidal activity against Pseudoperonospora cubensis assessed as cucumber downy mildew disease control at 7.8 ppm foliar application 24 hr before inoculation onto the abaxial(untreated) surface of leaf by preventive manner.
In test [14] the test system is Blumeria graminis f. sp. tritici. Kind of test: Fungicidal activity against Blumeria graminis f. sp. tritici assessed as wheat powdery mildew disease control at 2 ppm foliar application for 48 hr before inoculation by preventive manner.
For test [15], the system named is Podosphaera fuliginea. Kind of test: Fungicidal activity against Podosphaera fuliginea assessed as cucumber powdery mildew control at 7.8 ppm foliar application 24 hr before inoculation at 23 +/- 2 degC by preventive manner.
Test [16] has as its system Podosphaera fuliginea. As to the kind of experiment: Fungicidal activity against Podosphaera fuliginea assessed as cucumber powdery mildew control at 125 ppm foliar application 24 hr before inoculation at 23 +/- 2 degC by preventive manner.
The subject of test [17] is Blumeria graminis f. sp. tritici. Kind of test: Fungicidal activity against Blumeria graminis f. sp. tritici assessed as wheat powdery mildew disease control at 125 ppm foliar application for 48 hr before inoculation by preventive manner.
Test [18] has as its system Botrytis cinerea. Kind of test: Fungicidal activity against Botryotinia fuckeliana assessed as cucumber gray mold disease control at 125 ppm foliar application […] at 22 +/- 2 degC by preventive manner.
Test [19] concerns Pseudoperonospora cubensis. As to the kind of experiment: Fungicidal activity against Pseudoperonospora cubensis assessed as cucumber downy mildew disease control at 31.3 ppm foliar application 24 hr before inoculation onto the adaxial(treated) surface of leaf by preventive manner.
Test [20] deals with Pyricularia oryzae. As to the kind of experiment: Fungicidal activity against Magnaporthe oryzae assessed as rice blast disease control at 125 ppm foliar application for 24 hr before inoculation at 27 +/- 2 degC measured after 5 days by preventive manner.
For test [21], the system named is Botrytis cinerea. As to the kind of experiment: Fungicidal activity against Botryotinia fuckeliana assessed as cucumber gray mold disease control at 31.3 ppm foliar application […] at 22 +/- 2 degC by preventive manner.
In test [22] the test system is Pseudoperonospora cubensis. Kind of test: Fungicidal activity against Pseudoperonospora cubensis assessed as cucumber downy mildew disease control at 7.8 ppm foliar application 24 hr before inoculation onto the adaxial(treated) surface of leaf by preventive manner.
Test [23] relates to Blumeria graminis f. sp. tritici. As to the kind of experiment: Fungicidal activity against Blumeria graminis f. sp. tritici assessed as wheat powdery mildew disease control at 7.8 ppm foliar application 48 24 hr before inoculation by preventive manner.
The subject of test [24] is Pyricularia oryzae. As to the kind of experiment: Fungicidal activity against Magnaporthe oryzae assessed as rice blast disease control at 2 ppm foliar application for 24 hr before inoculation at 27 +/- 2 degC measured after 5 days by preventive manner.

The values that follow come from ChEMBL document CHEMBL3046469, “Fungicidal Activities of 2-(Substituted Phenoxymethyl)phenyl-2-methoxyiminoacaetamide Derivatives” (1998).

For `CNC(=O)/C(=N/OC)c1ccccc1COc1cc(Cl)c(Cl)cc1Cl`, the Activity (in test [1]; in the test on Thanatephorus cucumeris [2]; in test [3]; in the test with Pyricularia oryzae [4]; in test [5]; with Botrytis cinerea [6]) was 90% in each case. In addition, the Activity in the test with Podosphaera fuliginea [7] is 90%.
In the case of `CNC(=O)/C(=N/OC)c1ccccc1COc1ccc(F)c(F)c1`, the Activity is given as below 90% in test [8]; 90% in test [1]; below 90% in the test with Thanatephorus cucumeris [9]; 90% in the test on Podosphaera fuliginea [10]; below 90% in [11]; 90% in the test with Pyricularia oryzae [4]. Also, the Activity in the test on Botrytis cinerea [6] was 90%.
For the molecule `CNC(=O)/C(=N/OC)c1ccccc1COc1ccc(Cl)c(C)c1`, the Activity with Pyricularia oryzae [12] was 90%; in [13], 90%; in test [14], 90%; in [3], 90%; with Thanatephorus cucumeris [9], below 90%; in the test on Podosphaera fuliginea [15], 90%. For the same molecule, the Activity in the test on Botrytis cinerea [6] is listed as 90%.
On to `CNC(=O)/C(=N/OC)c1ccccc1COc1ccccc1OC(C)C`, for which the Activity is listed as below 90% in [8]; 90% with Podosphaera fuliginea [16]; below 90% in test [17]; below 90% in the test with Thanatephorus cucumeris [9]; below 90% with Botrytis cinerea [18]; 90% in [19]. Further, the Activity with Pyricularia oryzae [20] was 90%.
As to `CNC(=O)/C(=N/OC)c1ccccc1COc1c(Cl)cc(Cl)cc1Cl`, the Activity in [8] is given as below 90%; in test [1], 90%; with Podosphaera fuliginea [16], 90%; in the test with Botrytis cinerea [21] it was 90%; in the test on Thanatephorus cucumeris [9], below 90%; in test [19] it was 90%. Further, the Activity in the test on Pyricularia oryzae [20] is 90%.
With `C#CCOc1ccccc1OCc1ccccc1/C(=N\OC)C(=O)NC`, the Activity in [8] was below 90%; in the test with Podosphaera fuliginea [16], 90%; in [17], below 90%; in the test with Thanatephorus cucumeris [9], below 90%; in the test on Botrytis cinerea [18] it was below 90%; in [11], 90%. The Activity in the test on Pyricularia oryzae [20] is 90%.
Regarding `CNC(=O)/C(=N/OC)c1ccccc1COc1ccc(C#N)cc1`, the Activity was 90% in test [8]; below 90% in the test with Podosphaera fuliginea [16]; 90% in test [17]; 90% with Botrytis cinerea [21]; below 90% in the test with Thanatephorus cucumeris [9]; 90% in test [19]. The Activity in the test with Pyricularia oryzae [20] is recorded as below 90%.
In the case of `CNC(=O)/C(=N/OC)c1ccccc1COc1ccccc1-c1ccccc1`, the Activity in test [8] is below 90%; in the test on Podosphaera fuliginea [16], 90%; in test [17], below 90%; with Thanatephorus cucumeris [9], below 90%; in the test on Botrytis cinerea [18], below 90%; in test [11] it was 90%. Also, the Activity in the test with Pyricularia oryzae [20] was determined as 90%.
Regarding `CNC(=O)/C(=N/OC)c1ccccc1COc1cc(Cl)cc(Cl)c1Cl`, the Activity in test [8] was below 90%; in [1], 90%; in [3], 90%; in the test with Thanatephorus cucumeris [9] it was below 90%; in the test on Pyricularia oryzae [20], below 90%; in the test on Botrytis cinerea [6] it was 90%. The Activity in the test on Podosphaera fuliginea [7] came to 90%.
In the case of `CNC(=O)/C(=N/OC)c1ccccc1COc1cccc(C(F)(F)F)c1`, the Activity (in the test on Pyricularia oryzae [12]; in [13]; in test [14]; in the test on Thanatephorus cucumeris [9]; in [22]; with Podosphaera fuliginea [15]) was 90% in each case. For the same molecule, the Activity in the test on Botrytis cinerea [6] is 90%.
Take `CNC(=O)/C(=N/OC)c1ccccc1COc1cccc(N(C)C)c1`: the Activity is on record as below 90% in test [8]; below 90% with Podosphaera fuliginea [16]; below 90% in [17]; 90% in the test on Botrytis cinerea [21]; below 90% with Thanatephorus cucumeris [9]; 90% in test [19]. Also, the Activity in the test on Pyricularia oryzae [20] is 90%.
Turning to `CNC(=O)/C(=N/OC)c1ccccc1COc1ccc(OC(C)C)cc1`, the Activity (in the test with Thanatephorus cucumeris [2]; in the test on Podosphaera fuliginea [15]; in the test with Pyricularia oryzae [4]; in test [5]; in [19]; in test [23]) was 90% in each case. For the same molecule, the Activity in the test on Botrytis cinerea [6] is listed as 90%.
Turning to `CNC(=O)/C(=N/OC)c1ccccc1COc1c(C)ccc(C)c1C`, the Activity in [8] is given as 90%; in the test with Podosphaera fuliginea [16], below 90%; in [17], below 90%; in the test with Thanatephorus cucumeris [9], below 90%; with Botrytis cinerea [18], below 90%; in [11] it was below 90%. The Activity in the test on Pyricularia oryzae [20] turned out to be 90%.
As for `CNC(=O)/C(=N/OC)c1ccccc1COc1c(Cl)ccc(Cl)c1Cl`, the Activity in test [8] is below 90%; in the test with Podosphaera fuliginea [16], 90%; in test [17] it was 90%; in the test on Thanatephorus cucumeris [9], below 90%; with Botrytis cinerea [18] it was 90%; in test [19] it was 90%. Also, the Activity in the test with Pyricularia oryzae [20] worked out at 90%.
Take `CNC(=O)/C(=N/OC)c1ccccc1COc1cccc(C)c1C`: the Activity (in [8]; in test [1]; in test [3]; with Botrytis cinerea [21]; with Thanatephorus cucumeris [9]; in the test on Podosphaera fuliginea [10]) was 90% throughout. Moreover, the Activity in the test on Pyricularia oryzae [24] came to 90%.
Turning to `CNC(=O)/C(=N/OC)c1ccccc1COc1ccccc1C`, the Activity (in test [8]; in test [14]; in the test with Thanatephorus cucumeris [2]; in test [3]; with Pyricularia oryzae [24]; in the test with Botrytis cinerea [6]) was 90% throughout. In addition, the Activity in the test on Podosphaera fuliginea [7] stood at 90%.
Regarding `CNC(=O)/C(=N/OC)c1ccccc1COc1c(Cl)cccc1Cl`, the Activity in [8] was below 90%; in test [1] it was 90%; with Podosphaera fuliginea [16], below 90%; in the test with Thanatephorus cucumeris [9], below 90%; in the test on Botrytis cinerea [18], 90%; in test [11], below 90%. Besides, the Activity in the test with Pyricularia oryzae [20] turned out to be 90%.
With `CNC(=O)/C(=N/OC)c1ccccc1COc1ccc(C)c(C)c1`, the Activity (in the test on Pyricularia oryzae [12]; in test [8]; in test [14]; in test [3]; with Thanatephorus cucumeris [9]; in the test with Podosphaera fuliginea [15]) was 90% each time. Further, the Activity in the test with Botrytis cinerea [6] stood at 90%.
In the case of `CNC(=O)/C(=N/OC)c1ccccc1COc1cccc(F)c1`, the Activity (in [13]; in the test with Botrytis cinerea [21]; in the test with Thanatephorus cucumeris [9]; in test [22]; with Podosphaera fuliginea [10]; with Pyricularia oryzae [4]) was 90% throughout. Moreover, the Activity in [23] was 90%.
As to `CNC(=O)/C(=N/OC)c1ccccc1COc1cccc(Cl)c1Cl`, the Activity in test [8] is below 90%; in [1], 90%; in [3] it was 90%; in the test on Botrytis cinerea [21], 90%; in the test on Thanatephorus cucumeris [9], below 90%; in the test with Pyricularia oryzae [4], 90%. Besides, the Activity in the test with Podosphaera fuliginea [7] is 90%.
Turning to `CNC(=O)/C(=N/OC)c1ccccc1COc1c(C)cccc1C`, the Activity is reported as below 90% in test [8]; 90% with Podosphaera fuliginea [16]; 90% in test [17]; below 90% with Thanatephorus cucumeris [9]; 90% with Botrytis cinerea [18]; below 90% in test [11]. For the same molecule, in the test with Pyricularia oryzae [20], the Activity worked out at 90%.
